From patent US9732094B2, “Arylquinazolines” (Merck Patent GmbH, priority 2013, dated 2017)
Read-outs that look alike come from different tables or passages of the source.

How the values were obtained:
[1] = target: DNA-PK phosphorylation at serine 2056 (Homo sapiens (Human), UniProt P78527); assay: DNA-PK phosphorylation at serine 2056 (cellular), bleomycin-treated HCT116 cells, ELISA; type: cell-based; conditions: cellular DNA-PK phosphorylation at serine 2056, HCT116; read-out: IC50 pDNA-PK
Outline: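 Chemiluminescent ELISA quantified DNA-PK Ser2056 phosphorylation relative to total DNA-PKcs in HCT116 cells. Cells received compounds together with 10 μM bleomycin for 6 h; DMSO served as blank.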

DNA-PK = DNA-PK (Homo sapiens (Human), UniProt P78527); assay: DNA-PK assay (biochemical), flashplate 33P-ATP kinase assay; conditions: biochemical DNA-PK assay
Outline: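 Radiometric kinase reaction in streptavidin-coated flashplates, stopped with 200 mM EDTA, then 30 min room-temperature incubation and saline washes.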

Kv11.1 (hERG) = Kv11.1 (hERG) (Homo sapiens (Human), UniProt Q12809); assay: Kv11.1 (hERG) ion channel activity (patch clamp assay), HEK293 cells transfected with hERG gene; conditions: hERG patch clamp assay (cells without asterisk)
Kv11.1 (hERG), sequence (Q12809 whole entry): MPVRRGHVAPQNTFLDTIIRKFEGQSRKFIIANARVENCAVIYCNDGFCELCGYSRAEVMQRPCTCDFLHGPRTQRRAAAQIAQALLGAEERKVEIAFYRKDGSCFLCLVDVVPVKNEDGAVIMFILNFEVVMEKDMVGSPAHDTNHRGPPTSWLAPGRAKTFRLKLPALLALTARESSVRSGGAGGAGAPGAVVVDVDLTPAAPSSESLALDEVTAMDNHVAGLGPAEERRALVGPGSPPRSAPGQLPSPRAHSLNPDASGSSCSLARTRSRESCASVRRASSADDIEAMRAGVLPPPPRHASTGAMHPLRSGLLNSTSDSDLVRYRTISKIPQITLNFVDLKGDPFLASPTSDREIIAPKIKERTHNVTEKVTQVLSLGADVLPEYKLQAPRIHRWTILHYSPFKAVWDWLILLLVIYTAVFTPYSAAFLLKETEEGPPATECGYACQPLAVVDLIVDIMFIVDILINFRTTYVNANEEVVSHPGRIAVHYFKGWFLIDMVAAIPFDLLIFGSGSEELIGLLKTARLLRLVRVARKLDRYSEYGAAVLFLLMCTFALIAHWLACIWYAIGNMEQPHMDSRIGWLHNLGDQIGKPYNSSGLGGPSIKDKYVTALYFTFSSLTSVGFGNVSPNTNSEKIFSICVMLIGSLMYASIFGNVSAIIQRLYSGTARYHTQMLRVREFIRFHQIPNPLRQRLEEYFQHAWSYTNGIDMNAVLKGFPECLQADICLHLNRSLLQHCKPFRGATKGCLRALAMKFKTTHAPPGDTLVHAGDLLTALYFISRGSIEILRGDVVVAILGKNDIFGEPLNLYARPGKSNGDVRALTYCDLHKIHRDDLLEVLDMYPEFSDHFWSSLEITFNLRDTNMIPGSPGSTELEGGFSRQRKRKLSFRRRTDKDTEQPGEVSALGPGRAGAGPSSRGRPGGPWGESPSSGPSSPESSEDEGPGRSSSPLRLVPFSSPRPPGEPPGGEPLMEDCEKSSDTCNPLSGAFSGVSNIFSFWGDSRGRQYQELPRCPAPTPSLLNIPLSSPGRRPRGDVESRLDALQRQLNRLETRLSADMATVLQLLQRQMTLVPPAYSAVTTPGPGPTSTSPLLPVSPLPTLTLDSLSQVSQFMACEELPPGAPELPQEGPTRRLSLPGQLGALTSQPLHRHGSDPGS
Description: C) Kv11.1 (hERG) Ion Channel Activity (Patch Clamp Assay)
The patch-clamp measurement was carried out at room temperature in whole-cell configuration on human embryonic kidney cells (HEK293) which have been transfected in a stable manner with the hERG gene.
The whole-cell configurations were carried out using an automated patch clamp device (Patchliner™, Nanion Technologies, Munich). […] The glass chip has a hole of defined size to which the cell is transferred into the Gigaseal by application of a reduced pressure and brought into the whole-cell configuration. Buffer, cell suspension and test substances were added to microchannels of the chip using a Teflon-coated pipette. The cells were clamped to a holding potential of −80 mV. For measurement of substance-promoted inhibition of the Kv11.1 channel, the following voltage protocol was applied at 10-second intervals: 51 ms/−80 mV, 500 ms/+40 mV, 500 ms/−40 mV, 200 ms/−80 mV. The leakage current is subtracted by means of the P4 method. The cells were resuspended in extracellular buffer (EC) and applied to the chip. After the cell had been collected, the seal was improved by addition of a seal enhancer buffer. As soon as the whole-cell configuration had been reached, the seal enhancer buffer was washed out and replaced by extracellular buffer. The measurement started in EC for 1.5 min. DMSO (vehicle control, 0.1% of DMSO) was then applied, and the control current was recorded for 3 min. The test substance was subsequently added twice in the same concentration, and the potassium current was measured for 3.5 min in each case.
The reference substance used was the Kv11.1 (hERG) ion channel blocker quinidine. The effects of test substances and quinidine were standardised to the associated vehicle control. The effect on the Kv11.1 (hERG) channel activity was assessed from the potassium current at −40 mV. For the calculation, the current was evaluated for the respective final trace.
During the measurement, an aliquot of the test substance was taken for concentration determination. The sample was measured immediately by HPLC, and the final concentration was determined from a calibration curve.

COc1ccc(C(C(N)=O)c2cc(-c3ncnc4cc(N5CCOCC5)ccc34)ccc2Cl)nn1 (stereo not drawn) [Example 310, 2-[2-Chloro-5-(7-morpholin-4-yl-quinazolin-4-yl)-phenyl]-2-(6-methoxy-pyridazin-3-yl)acetamide]
IC50 [1]: 10 to 30 µM
IC50 (DNA-PK): > 0.03 µM
Ki (Kv11.1 (hERG); Ki [Kv1.11 hERG]): 15 to 25 µM

Cn1nc(C(C(N)=O)c2cc(-c3ncnc4cc(N5CCOCC5)ccc34)c(F)cc2Cl)ccc1=O (stereo not drawn) [Example 311, 2-[2-Chloro-4-fluoro-5-(7-morpholin-4-yl-quinazolin-4-yl)-phenyl]-2-(1-methyl-6-oxo-1,6-dihydro-pyridazin-3-yl)-acetamide]
IC50 [1]: 10 to 30 µM
IC50 (DNA-PK): > 0.03 µM
Ki (Kv11.1 (hERG); read-out: Ki [Kv1.11 hERG]): > 25 µM

Cn1c(C(C(N)=O)c2cc(-c3ncnc4cc(N5CCOCC5)ccc34)c(F)cc2Cl)cccc1=O (stereo not drawn) [Example 312, 2-[2-Chloro-4-fluoro-5-(7-morpholin-4-yl-quinazolin-4-yl)-phenyl]-2-(1-methyl-6-oxo-1,6-dihydro-pyridin-2-yl)-acetamide]
IC50 [1]: 10 to 30 µM
IC50 (DNA-PK): > 0.03 µM
Ki (Kv11.1 (hERG); read-out: Ki [Kv1.11 hERG]): > 25 µM

NC(=O)C(c1ccc(F)c(-c2ncnc3cc(N4CCOCC4)ccc23)c1)c1ncccc1Cl (stereo not drawn) [Example 313, 2-(3-Chloro-pyridin-2-yl)-2-[4-fluoro-3-(7-morpholin-4-yl-quinazolin-4-yl)-phenyl]acetamide]
IC50 [1]: 5 to 10 µM
IC50 (DNA-PK): 0.007 to 0.03 µM
Ki (Kv11.1 (hERG); Ki [Kv1.11 hERG]): 15 to 25 µM

Cc1ncc(C(O)c2ccc(F)c(-c3ncnc4cc(N5CCOCC5)ccc34)c2)nc1C (stereo not drawn) [Example 314, (5,6-Dimethyl-pyrazin-2-yl)-[4-fluoro-3-(7-morpholin-4-yl-quinazolin-4-yl)-phenyl]methanol]
IC50 [1]: 0.5 to 5 µM
IC50 (DNA-PK): 0.007 to 0.03 µM
Ki (Kv11.1 (hERG); Ki [Kv1.11 hERG]): 15 to 25 µM

NC(=O)C(c1cc(-c2ncnc3cc(N4CCOCC4)ccc23)ccc1Cl)c1nccnc1Cl (stereo not drawn) [Example 315, 2-[2-Chloro-5-(7-morpholin-4-yl-quinazolin-4-yl)-phenyl]-2-(3-chloro-pyrazin-2-yl)-acetamide]
IC50 [1]: 10 to 30 µM
IC50 (DNA-PK): > 0.03 µM
Ki (Kv11.1 (hERG); Ki [Kv1.11 hERG]): 10 to 15 µM

Cn1nc(C(C(N)=O)c2ccc(F)c(-c3ncnc4cc(N5CCOCC5)ccc34)c2)ccc1=O (stereo not drawn) [Example 317, 2-[4-Fluoro-3-(7-morpholin-4-yl-quinazolin-4-yl)-phenyl]-2-(1-methyl-6-oxo-1,6-dihydro-pyridazin-3-yl)-acetamide]
IC50 [1]: 10 to 30 µM
IC50 (DNA-PK): > 0.03 µM
Ki (Kv11.1 (hERG); Ki [Kv1.11 hERG]): 15 to 25 µM

Cc1cnc(C(C(N)=O)c2ccc(F)c(-c3ncnc4cc(N5CCOCC5)ccc34)c2)c(C)n1 (stereo not drawn) [Example 318, 2-(3,5-Dimethyl-pyrazin-2-yl)-2-[4-fluoro-3-(7-morpholin-4-yl-quinazolin-4-yl)-phenyl]acetamide]
IC50 [1]: 10 to 30 µM
IC50 (DNA-PK): 0.007 to 0.03 µM
Ki (Kv11.1 (hERG); read-out: Ki [Kv1.11 hERG]): > 25 µM

COc1nccnc1C(C(N)=O)c1cc(-c2ncnc3cc(N4CCOCC4)ccc23)c(F)cc1F (stereo not drawn) [Example 319, 2-[2,4-Difluoro-5-(7-morpholin-4-ylquinazolin-4-yl)phenyl]-2-(3-methoxypyrazin-2-yl)acetamide]
IC50 [1]: 5 to 10 µM
IC50 (DNA-PK): 0.007 to 0.03 µM
Ki (Kv11.1 (hERG); read-out: Ki [Kv1.11 hERG]): > 25 µM

COc1nccnc1C(C(N)=O)c1cc(-c2ncnc3cc(N4CCOCC4)ccc23)c(F)cc1Cl (stereo not drawn) [Example 320, 2-[2-Chloro-4-fluoro-5-(7-morpholin-4-yl-quinazolin-4-yl)-phenyl]-2-(3-methoxy-pyrazin-2-yl)acetamide]
IC50 [1]: 0.5 to 5 µM
IC50 (DNA-PK): 0.007 to 0.03 µM
Ki (Kv11.1 (hERG); read-out: Ki [Kv1.11 hERG]): > 25 µM

NC(=O)C(c1ccc(F)c(-c2ncnc3cc(N4CCOCC4)ccc23)c1)c1c(F)cncc1F (stereo not drawn) [Example 321, 2-(3,5-Difluoro-pyridin-4-yl)-2-[4-fluoro-3-(7-morpholin-4-yl-quinazolin-4-yl)-phenyl]acetamide]
IC50 [1]: 0.5 to 5 µM
IC50 (DNA-PK): 0.007 to 0.03 µM
Ki (Kv11.1 (hERG); Ki [Kv1.11 hERG]): 15 to 25 µM

NC(=O)C(c1ccc(F)c(-c2ncnc3cc(N4CCOCC4)ccc23)c1)c1cncc(F)c1Cl (stereo not drawn) [Example 322, 2-(4-Chloro-5-fluoro-pyridin-3-yl)-2-[4-fluoro-3-(7-morpholin-4-yl-quinazolin-4-yl)-phenyl]acetamide]
IC50 [1]: 0.5 to 5 µM
IC50 (DNA-PK): 0.003 to 0.007 µM
Ki (Kv11.1 (hERG); Ki [Kv1.11 hERG]): 10 to 15 µM

NC(=O)C(c1ccc2nccn2n1)c1cc(-c2ncnc3cc(N4CCOCC4)ccc23)c(F)cc1Cl (stereo not drawn) [Example 323, 2-[2-Chloro-4-fluoro-5-(7-morpholin-4-yl-quinazolin-4-yl)-phenyl]-2-imidazo-[1,2-b]pyridazin-6-yl-acetamide]
IC50 [1]: 0.5 to 5 µM
IC50 (DNA-PK): 0.003 to 0.007 µM
Ki (Kv11.1 (hERG); Ki [Kv1.11 hERG]): 15 to 25 µM

Cc1nccnc1C(C(N)=O)c1cc(-c2ncnc3cc(N4CCOCC4)ccc23)c(F)cc1Cl (stereo not drawn) [Example 324, 2-[2-Chloro-4-fluoro-5-(7-morpholin-4-yl-quinazolin-4-yl)-phenyl]-2-(3-methyl-pyrazin-2-yl)-acetamide]
IC50 [1]: 0.5 to 5 µM
IC50 (DNA-PK): 0.003 to 0.007 µM
Ki (Kv11.1 (hERG); read-out: Ki [Kv1.11 hERG]): > 25 µM

COc1ccc(C(C(N)=O)c2cc(-c3ncnc4cc(N5CCOCC5)ccc34)c(F)cc2Cl)nn1 (stereo not drawn) [Example 325, 2-[2-Chloro-4-f1uoro-5-(7-morpholin-4-yl-quinazolin-4-yl)-phenyl]-2-(6-methoxypyridazin-3-yl)acetamide]
IC50 [1]: 10 to 30 µM
IC50 (DNA-PK): > 0.03 µM
Ki (Kv11.1 (hERG); Ki [Kv1.11 hERG]): 15 to 25 µM

Cn1nc(C(O)c2ccc(F)c(-c3ncnc4cc(N5CCOCC5)ccc34)c2)ccc1=O (stereo not drawn) [Example 326, 6-{[4-Fluoro-3-(7-morpholin-4-yl-quinazolin-4-yl)-phenyl]hydroxy-methyl}-2-methyl-2H-pyridazin-3-one]
IC50 [1]: 0.5 to 5 µM
IC50 (DNA-PK): 0.007 to 0.03 µM
Ki (Kv11.1 (hERG); read-out: Ki [Kv1.11 hERG]): > 25 µM

Cc1nccnc1C(C(N)=O)c1ccc(F)c(-c2ncnc3cc(N4CCOCC4)ccc23)c1 (stereo not drawn) [Example 327, 2-[4-Fluoro-3-(7-morpholin-4-yl-quinazolin-4-yl)-phenyl]-2-{3-methyl-pyrazin-2-yl)-acetamide]
IC50 [1]: 10 to 30 µM
IC50 (DNA-PK): 0.007 to 0.03 µM
Ki (Kv11.1 (hERG); read-out: Ki [Kv1.11 hERG]): > 25 µM

OC(c1ccc(F)c(-c2ncnc3cc(N4CCOCC4)ccc23)c1)c1nccc2ccoc12 (stereo not drawn) [Example 328, [4-Fluoro-3-(7-morpholin-4-yl-quinazolin-4-yl)-phenyl)furo[2,3-c]-pyridin-7-ylmethanol]
IC50 [1]: < 0.5 µM
IC50 (DNA-PK): < 0.003 µM
Ki (Kv11.1 (hERG); read-out: Ki [Kv1.11 hERG]): < 10 µM

Cc1nccnc1C(C(N)=O)c1cc(-c2ncnc3cc(N4CCOCC4)ccc23)c(F)cc1F (stereo not drawn) [Example 329, 2-[2,4-Difluoro-5-(7-morpholin-4-yl-quinazolin-4-yl)-phenyl]-2-(3-methyl-pyrazin-2-yl)-acetamide]
IC50 [1]: 5 to 10 µM
IC50 (DNA-PK): 0.007 to 0.03 µM
Ki (Kv11.1 (hERG); read-out: Ki [Kv1.11 hERG]): > 25 µM

Oc1ncnc(C(O)c2cc(-c3ncnc4cc(N5CCOCC5)ccc34)ccc2Cl)c1Cl (stereo not drawn) [Example 330, 5-Chloro-6-{[2-chloro-5-(7-morpholin-4-yl-quinazolin-4-yl)-phenyl]hydroxy-methyl}pyrimidin-4-ol]
IC50 [1]: 10 to 30 µM
IC50 (DNA-PK): 0.007 to 0.03 µM
Ki (Kv11.1 (hERG); read-out: Ki [Kv1.11 hERG]): > 25 µM

Cc1nccnc1/C(C(=O)O)=C1/C=CC(=O)C(c2ncnc3cc(N4CCOCC4)ccc23)=C1 [Example 331, (3-methyl-pyrazin-2-yl)-[3-(7-morpholin-4-ylquinazolin-4-yl)-4-oxocyclohexa-2,5-dien-(E)-ylidene]-acetic acid]
IC50 [1]: 5 to 10 µM
IC50 (DNA-PK): 0.007 to 0.03 µM
Ki (Kv11.1 (hERG); read-out: Ki [Kv1.11 hERG]): > 25 µM

OC(c1ccc(F)c(-c2ncnc3cc(N4CCOCC4)ccc23)c1)c1nncc2ccsc12 (stereo not drawn) [Example 332, [4-Fluoro-3-(7-morpholin-4-yl-quinazolin-4-yl)-phenyl]thieno[2,3-d}-pyridazin-7-yl-methanol]
IC50 [1]: < 0.5 µM
IC50 (DNA-PK): < 0.003 µM
Ki (Kv11.1 (hERG); Ki [Kv1.11 hERG]): 15 to 25 µM

OC(c1ccc(F)c(-c2ncnc3cc(N4CCOCC4)ccc23)c1)c1nncc2sccc12 (stereo not drawn) [Example 333, [4-Fluoro-3-(7-morpholin-4-yl-quinazolin-4-yl)-phenyl]thieno[2,3-d}-pyridazin-4-yl-methanol]
IC50 [1]: < 0.5 µM
IC50 (DNA-PK): < 0.003 µM
Ki (Kv11.1 (hERG); Ki [Kv1.11 hERG]): 15 to 25 µM

Cc1cc(C(C(N)=O)c2cc(-c3ncnc4cc(N5CCOCC5)ccc34)c(F)cc2Cl)n(C)c(=O)c1 (stereo not drawn) [Example 334, 2-[2-Chloro-4-fluoro-5-(7-morpholin-4-yl-quinazolin-4-yl)-phenyl]-2-(1,4-dimethyl-6-oxo-1,6-dihydropyridin-2-yl)-acetamide]
IC50 [1]: 10 to 30 µM
IC50 (DNA-PK): > 0.03 µM
Ki (Kv11.1 (hERG); read-out: Ki [Kv1.11 hERG]): > 25 µM

OC(c1ccc(F)c(-c2ncnc3cc(N4CCOCC4)ccc23)c1)c1nncc2ccoc12 (stereo not drawn) [Example 335, [4-Fluoro-3-(7-morpholin-4-yl-quinazolin-4-yl)-phenyl]furo[2,3-d}-pyridazin-7-yl-methanol]
IC50 [1]: < 0.5 µM
IC50 (DNA-PK): < 0.003 µM
Ki (Kv11.1 (hERG); read-out: Ki [Kv1.11 hERG]): > 25 µM

OC(c1cc(-c2ncnc3cc(N4CCOCC4)ccc23)c(F)cc1F)c1nncc2ccoc12 (stereo not drawn) [Example 336, [2,4-Difluoro-5-(7-morpholin-4-yl-quinazolin-4-yl)-phenyl]furo[2,3-d}-pyridazin-7-yl-methanol]
IC50 [1]: < 0.5 µM
IC50 (DNA-PK): < 0.003 µM
Ki (Kv11.1 (hERG); read-out: Ki [Kv1.11 hERG]): > 25 µM

O=c1[nH]nc(C(O)c2ccc(F)c(-c3ncnc4cc(N5CCOCC5)ccc34)c2)c2sccc12 (stereo not drawn) [Example 337, 7-[[4-Fluoro-3-(7-morpholino-quinazolin-4-yl)-phenyl]hydroxy-methyl]-5H-thieno-[2,3-d}pyridazin-4-one]
IC50 [1]: 0.5 to 5 µM
IC50 (DNA-PK): < 0.003 µM
Ki (Kv11.1 (hERG); Ki [Kv1.11 hERG]): 15 to 25 µM

O=c1[nH]nc(C(O)c2ccc(F)c(-c3ncnc4cc(N5CCOCC5)ccc34)c2)c2ccsc12 (stereo not drawn) [Example 338, 4-[[4-Fluoro-3-(7-morpholino-quinazolin-4-yl)-phenyl]hydroxy-methyl]-6H-thieno[2,3-d}-pyridazin-7-one]
IC50 [1]: 0.5 to 5 µM
IC50 (DNA-PK): < 0.003 µM
Ki (Kv11.1 (hERG); read-out: Ki [Kv1.11 hERG]): > 25 µM
